Results on 8 compounds are retold here after patent US4902690A, “Pest controlling compositions” (The General Hospital Corporation, priority 1988, dated 1990).

The test system of assay [1] is phosphodiesterase enzyme of hornworm nerve cord. Briefly: PDE inhibitory activity, hornworm nerve tissue. The format is biochemical, tobacco hornworm (Manducca sexta). Conditions: FIG. 8. The text has this:
(§1) The ability of any compound (A) to inhibit phosphodiesterase (PDE) activity in broken cell preparations of firefly lantern or in pest tissues can be determined either (1) by measuring the decrease in rate of hydrolysis of an added amount of cyclic AMP by PDE (see Methods Section of Nathanson et al., Mol. Pharmacol. 12:390-398 (1975)), or (2) by measuring the rate of accumulation of one of the breakdown products of cyclic AMP, such as 5'-AMP or adenosine (see method of Filburn et al., Anal. Biochem. 52:505-516 (1973)). Both of these are herein incorporated by reference.
(§2) In this assay (modified slightly from Filburn and Karn (Analyt. Biochem. 52: 505-516 (1973)), the rate of hydrolysis of labeled cyclic AMP to 5'-AMP by PDE is measured by converting the breakdown product (5'-AMP) to adenosine, which can be separated and measured by alumina chromatography. Specifically, tissue from either the firefly lantern or pest is homogenized (10-20 mg/ml) in 6 mM Tris-maleate buffer, pH 7.4. The hydrolysis reaction is run in test tubes containing (in 100 microliters): 80 mM Tris maleate, pH 7.4; 6 mM MgSO4; 10 pmoles tritiated cyclic AMP (2×10^4 to 2×10^5 cpm, depending upon the activity of the enzyme); 20 microliters of tissue homogenate; and various concentrations of the compound to be tested. In those cases in which the compound is insoluble in aqueous solution at pH 7.4, pH can be varied between pH 6.5 and 9.0 for optimization of solubility. In addition, the test compound can be initially solubilized in either 100% methanol or DMSO and diluted to a final concentration of 10% methanol or DMSO in the assay (in which case solvent controls are run in parallel).
The reaction is started by the addition of homogenate, run for 4 min at 37° C., and terminated by boiling for 90 sec. […] The void volume is discarded and the column is then eluted with 2 ml of 0.1N ammonium acetate, pH 4.0, the eluent collected and counted by liquid scintillation spectrometry. […]

Assay [2] has as its system tobacco hornworms (Manducca sexta). The assay is described as follows: In vivo leaf test (feeding on sprayed tomato leaves). Conditions: for antifeeding activity of the compound by itself: FIGS. 10, 13, 17, Table 8; for activity as synergist of DDCDM: FIGS. 14, 15, 16, 8-phenyl-theophylline 0.1% with 0.1% DDCDM compared with 0.1% IBMX; for effect of adding IBMX on antifeeding / pesticidal activity of the compound: IBMX 0.1%, FIGS. 9, 10, 17, Tables 4, 7, 8, FIG. 9 at 72 hours.

Assay [3] has as its system adenylate cyclase in firefly lantern. Briefly: Direct activation of adenylate cyclase in firefly lantern. Format: biochemical, firefly (Photinus pyralis). The note with it: FIG. 4. How it is done: The second type of pest controlling compounds (B2) useable in the present compositions are direct stimulators of the pest enzyme adenylate cyclase. These compounds bypass the receptor, and interact with one or another of the associated catalytic or regulatory subunits of adenylate cyclase, thereby stimulating the formation of cyclic AMP. Suitable compounds can be determined from assay of pest adenylate cyclase as described above.
Adenylate cyclase activation by test compounds was measured in test tubes containing (in 0.3 ml) 80 mM Tris-maleate, pH 7.4; 10 mM theophylline; 8 mM MgCl2; 0.1 mM GTP; 0.5 mM ethylene glycol bis (beta-aminoethyl ether)-N,N,N'N'-tetraacetic acid; 2 mM ATP; 0.06 ml of P2 fraction; and the various compounds to be tested. Prior experiments had determined that, under these conditions, octopamine-sensitive adenylate cyclase activity is optimized. Test compounds were initially solubilized (prior to aqueous dilution) in water or (if soluble) in 50% (v/v) methanol. If insoluble in 50% methanol, compounds may be dissolved initially in 100% methanol, or 100% dimethylsulfoxide, or 100% polyethylene glycol. […] Cyclic AMP in the supernatant was measured by protein-binding assay, according to the method of Brown et al., Adv. […] Protein concentration was determined by the method of Lowry et al., Journal of Biological Chemistry 193:265-275 (1951). […]

The test system of assay [4] is adenylate cyclase, nerve cord of tobacco hornworm larvae. The assay is described as follows: Direct activation of adenylate cyclase, broken cell preparations of hornworm nerve cord. The note with it: FIG. 5.
Assay [5] relates to octopamine-sensitive adenylate cyclase (firefly lantern octopamine receptor). The assay is described as follows: Octopamine-sensitive adenylate cyclase activation, firefly light organ broken cell preparation. The format is biochemical, firefly (Photinus pyralis). The note with it: for Ka ratio / Vmax: FIG. 1, formamidines; for Vmax: % of octopamine.
Assay [6] deals with adenylate cyclase in nerve cord of tobacco hornworm. Briefly: Octopamine agonist activity, adenylate cyclase in broken cell preparations of insect nerve cord. Format: biochemical, tobacco hornworm (Manducca sexta). Conditions: FIG. 3. How it is done: In addition to the above method employing the firefly light organ, octopamine-sensitive adenylate cyclase can also be measured in tissue preparations from the nerve cord of any desired particular insect pest, using a modification of the method appearing in Nathanson et al. (Science 180:308-310 (1973)) herein incorporated by reference. […]. […] Otherwise, the procedure is identical to that described above.
[…]. The tissue is homogenized (usually 15 mg/ml) as above in 6 mM Tris maleate, pH 7.4. […]. This is done to cancel out the effects of dopamine and serotonin receptors which are usually present in nerve cord. It assures that the compound (B) tested is affecting only octopamine receptors (known to be present in all insect nerve cords).

The subject of another assay is Manducca eggs. The assay is described as follows: Ovacidal test (eggs dipped in drug solutions). Format: in vivo, Manducca sexta. How it is done:
In some cases, test agents were tested for ovacidal activity by dipping groups of 10-50 Manducca eggs in drug solutions for 60 seconds and then determining the percentage of eggs which produced viable larvae. A compound or synergist with active ovacidal activity was one which decreased the percentage of eggs hatched, relative to control.

The test system of assay [7] is Firefly phosphodiesterase enzyme. Briefly: PDE inhibitory activity, firefly lantern. The format is biochemical, firefly (Photinus pyralis).
Text: as §1
Generally, any compound capable of maximally inhibiting PDE activity by at least 50% (Vmax -inhibition) and preferably by at least 80% is preferred. Also, in terms of the concentration of the compound required for such inhibition, this can be quantitated by determining the IC 50-inhibition, i.e., the concentration of the compound required to cause 50% of the maximal inhibitioncaused by the compound at any concentration.
as §2
The reaction is started by the addition of homogenate, run for 4 min at 37° C., and terminated by boiling for 90 sec. The 5'AMP formed is then converted to adenosine by the addition of 20 microliters of an aqueous solution of 0.5 Units/ml of 5'-nucleotidase (Sigma, Grade IV), vortexed, and incubated for 30 minutes at 37° C. The second reaction is stopped by addition of 0.4 ml of 0.1N ammonium acetate, pH 4.0. The entire sample is then applied to a 0.5×8 cm column containing neutral alumina prewashed with 20 ml of 0.1N ammonium acetate, pH 4.0. The void volume is discarded and the column is then eluted with 2 ml of 0.1N ammonium acetate, pH 4.0, the eluent collected and counted by liquid scintillation spectrometry. Activity is cpms above that due to a blank which was initially incubated for 0 seconds in the first reaction.

[8] abbreviates: agonist 10^-2 gm/100 ml + PDE Inhibitor IBMX 0.1 g/100 ml.
[9] abbreviates: agonist 10^-2 gm/100 ml, No PDE Inhibitor.
Where [10] appears, read: agonist 10^-3 gm/100 ml + PDE Inhibitor IBMX 0.1 g/100 ml.
Setting [11] is: agonist 10^-3 gm/100 ml, No PDE Inhibitor.
Where [12] appears, read: agonist 1 gm/100 ml, No PDE Inhibitor.
Where [13] appears, read: agonist 10^-1 gm/100 ml, No PDE Inhibitor.
Where [14] appears, read: agonist 10^-1 gm/100 ml + PDE Inhibitor IBMX 0.1 g/100 ml.

Where “and” joins values, the source holds several entries; their conditions need not be identical. Equal entries are not always repeated.

Turning to `Cn1c(=O)c2[nH]c(-c3ccccc3)nc2n(C)c1=O` [8-phenyl-theophylline], the “inhibition of phosphodiesterase activity (maximal)” value in assay [1] is given as at most 30%. In assay [2] (FIG. 13), the “inhibition of feeding (maximal, even at a high dose)” value is listed as at most 35%. In addition, the “relative antifeeding potency” value in assay [2] (FIG. 13, dose sprayed on tomato leaves) is “shows the least activity”. For the same compound, in assay [2], the “antifeeding activity of the compound by itself” value is reported as “little antifeeding activity” and the “activity as synergist of DDCDM” value is “much less activity as a synergist”.
Take `C=C[C@@]1(C)CC(=O)[C@]2(O)[C@@]3(C)[C@@H](O)CCC(C)(C)[C@@H]3[C@H](O)[C@H](OC(C)=O)[C@@]2(C)O1` [forskolin]: in assay [2], the “antifeeding activity of the compound by itself” value is on record as “has antifeeding activity” and the “effect of adding IBMX on antifeeding / pesticidal activity of the compound” value was “enhanced”. In assay [3], the Ka ratio was 0.22 and the Vmax was determined as 100%. In assay [4], the Ka ratio is 0.20 and the Vmax result was “about 100%”.
Regarding `NCC(O)c1ccc(O)cc1` (racemic) [(±)-p-octopamine], the “effect of adding IBMX on antifeeding / pesticidal activity of the compound” value in assay [2] is on record as “greatly increases the percent leaf remaining”. The “Vmax (% OCT)” value in assay [5] (Table 1, phenylethylamines, maximal activation as % of that by (±)-p-octopamine, N.A. = No Activity) was 81 ± 1 % OCT and 100 ± 1 % OCT. Besides, the “activation of adenylate cyclase in nerve cord” value (shortened to “activation of adenylate cyclase”) in assay [6] is “potent activators of adenylate cyclase”.
On to `CNC=Nc1ccc(Cl)cc1C` [DCDM, mono-demethylchlordimeform], for which the “% Leaf Remaining” value in assay [2] (setting [8]) was 98%; in assay [2] (setting [9]), 95%; in assay [2] (setting [10]) it was 90%; in assay [2] (setting [11]), 45%; in assay [2] (agonist 10^-4 gm/100 ml + PDE Inhibitor IBMX 0.1 g/100 ml) it was 75%; in assay [2] (agonist 10^-4 gm/100 ml, No PDE Inhibitor), below 5%. Also, the “more potent than DDCDM against the octopamine receptor” value in assay [5] is on record as 50%. Also, the Ka ratio in assay [5] came out at 6. The Vmax in assay [5] is 76%. For the same compound, the “% Living Larvae” value in the assay with Manducca eggs (agonist 1 gm/100 ml + IBMX 0.1 g/100 ml) was 2%; in the assay with Manducca eggs (setting [12]) it was 2%; in the assay on Manducca eggs (agonist 10^-1 gm/100 ml + IBMX 0.1 g/100 ml), 3%; in the assay with Manducca eggs (setting [13]) it was 50%; with Manducca eggs (agonist 10^-2 gm/100 ml + IBMX 0.1 g/100 ml), 10%; with Manducca eggs (setting [9]), 50%.
As to `Cc1cc(Cl)ccc1N=CN` [DDCDM, di-demethylchlordimeform], the “state of the leaf 72 hours after treatment” value in assay [2] (0.1% of each compound, FIG. 11) is given as “eaten substantial amounts of the leaf”. In addition, the “% Leaf Remaining (increase over control)” value in assay [2] (DDCDM 0.1 g/100 ml alone) turned out to be 0%. Besides, the “% Leaf Remaining” value is given as 100% in assay [2] (agonist 1 gm/100 ml + PDE Inhibitor IBMX 0.1 g/100 ml); 100% in assay [2] (setting [12]); 98% in assay [2] (setting [14]); 30% in assay [2] (setting [13]); 85% in assay [2] (setting [8]); 7% in assay [2] (setting [9]). Besides, the “% Leaf Remaining” value in assay [2] (setting [10]) came to 20%; in assay [2] (setting [11]), 5%. Also, the Ka ratio in assay [5] is given as 4. Moreover, in assay [5], the Vmax came to 68%. For the same compound, the “activation of adenylate cyclase” value in assay [6] was “potent activators of adenylate cyclase”.
As for `Cc1cc(Cl)ccc1N=C1NCCN1` [NC 7], in assay [2], the “effect of adding IBMX on antifeeding / pesticidal activity of the compound” value is given as “substantial increases in the potency”. In addition, the “% Leaf Remaining” value in assay [2] (agonist 0.3 (3 × 10^-1) gm/100 ml + PDE Inhibitor IBMX 0.1 g/100 ml) is on record as 100%; in assay [2] (agonist 0.3 (3 × 10^-1) gm/100 ml, No PDE Inhibitor), 80%; in assay [2] (setting [14]), 95%; in assay [2] (setting [13]), 55%; in assay [2] (setting [8]) it was 85%; in assay [2] (setting [9]) it was 30%. Besides, the entries for the “% Leaf Remaining” value in assay [2] (setting [10]) and in assay [2] (setting [11]) were 48% and 23%, respectively. For the same compound, the “Ka^oct /Ka^B ratio” value in assay [5] (Table 2, clonidines, N.A. = no activity) is given as 9.8. In addition, the “activation of adenylate cyclase” value in assay [6] was “potent activators of adenylate cyclase”.
`Cn1c(=O)c2c(ncn2C)n(C)c1=O` [caffeine]: the “activity as synergist of DDCDM” value in assay [2] is given as “much more powerful in inhibiting leaf feeding than caffeine alone or DDCDM alone”. In addition, the “phosphodiesterase inhibition” value in assay [7] (FIG. 6) was “active as phosphodiesterase inhibitors”.
The IC50 is the concentration at which inhibition is half-maximal. `COc1ccc(C[C@H](N)C(=O)N[C@H]2[C@@H](O)[C@H](n3cnc4c(N(C)C)ncnc43)O[C@@H]2CO)cc1` [puromycin]: the “activity as synergist of DDCDM” value in assay [2] was “able to synergize the pesticidal activity of DDCDM”. Also, the “Vmax (maximal inhibition of PDE activity)” value in assay [7] (FIG. 7) is given as “greater than 70%”. For the same compound, in assay [7] (FIG. 7, read-out: IC50 -inhibition), the IC50 was below 2000 µM.
